Where “and” joins values, the source holds several entries; their conditions need not be identical. Equal entries are not always repeated.
Tests used:
SV2A [1] = target: T1, SV2A (Rattus norvegicus, UniProt Q02563); assay: in vivo SV2A receptor occupancy in rats; conditions: ip, 0.1 mg/kg i.p., 60 minutes post administration
T1 construct: from tissue; host or cells: brain of living rats

[2] = repeat dose pharmacokinetics in humans; format: in vivo, human; conditions: once daily repeat dosing, all doses
[3] = anti-convulsant activity in vivo
[4] = target: T2, synaptic vesicle glycoprotein 2A (Homo sapiens, UniProt Q7L0J3); assay: [11C]-UCB-J PET receptor occupancy after single oral dose, healthy male subjects, with PK/occupancy model; format: in vivo; conditions: for receptor occupancy: individual subjects
T2 construct: from tissue; host or cells: brain of living healthy male subjects (PET)
T2 sequence (Q7L0J3 whole entry): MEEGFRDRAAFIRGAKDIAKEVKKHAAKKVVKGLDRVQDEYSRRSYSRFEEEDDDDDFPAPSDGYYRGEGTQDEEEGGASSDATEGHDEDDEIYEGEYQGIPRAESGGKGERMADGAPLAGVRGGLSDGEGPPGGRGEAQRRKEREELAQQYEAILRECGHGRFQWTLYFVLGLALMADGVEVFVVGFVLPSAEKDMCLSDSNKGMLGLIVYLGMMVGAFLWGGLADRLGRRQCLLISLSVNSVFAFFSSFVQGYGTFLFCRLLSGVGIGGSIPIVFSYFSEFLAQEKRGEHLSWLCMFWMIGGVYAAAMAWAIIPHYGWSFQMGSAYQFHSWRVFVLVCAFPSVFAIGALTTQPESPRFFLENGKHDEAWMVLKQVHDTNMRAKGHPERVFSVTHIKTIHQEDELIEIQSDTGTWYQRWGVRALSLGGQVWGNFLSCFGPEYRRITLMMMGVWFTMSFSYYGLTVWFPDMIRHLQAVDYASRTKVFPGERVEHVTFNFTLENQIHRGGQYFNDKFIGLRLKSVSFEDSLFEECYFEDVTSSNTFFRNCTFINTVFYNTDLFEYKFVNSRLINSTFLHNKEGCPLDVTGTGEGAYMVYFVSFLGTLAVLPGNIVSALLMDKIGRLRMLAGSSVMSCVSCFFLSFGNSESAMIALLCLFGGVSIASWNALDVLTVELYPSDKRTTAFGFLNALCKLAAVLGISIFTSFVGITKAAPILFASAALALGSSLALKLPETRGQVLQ
Method: All images were acquired using the PET/MR Scanner: GE Signa TOF PET-MR 3 Tesla with software version MP26. As gamma counter, a 1480 Wizard well type gamma counter met 3-inch NaI crystal was used.
[^11C]-UCB-J is a PET tracer for imaging the synaptic vesicle glycoprotein 2A in the human brain. [^11C]-UCB-J is (4R)-1-{[3-(^11C)Methylpyridin-4-yl]methyl}-4-(3,4,5-trifluorophenyl)pyrrolidin-2-one.
Participants arrived approximately 90 minutes prior to the scheduled scan. This allowed the positioning of all necessary peripheral catheters before the start of the PET scan. Prior to PET imaging, at the PET centre, an indwelling venous cannula was inserted into an antecubital vein of the forearm to inject the radioligand. When required, an indwelling arterial catheter was placed in the radial artery of the opposite arm (if not feasible, can be in same arm) by a trained physician after numbing the area with a local anaesthetic prior to placement to withdraw blood for the measurement of the PET input function. On each PET scan day, no more than 3 skin penetrations per arm and one arterial penetration per arm were permitted before trying in the other arm. The venous catheter was used for the injection of [^11C]-UCB-J. [^11C]UCB-J was administered as an i.v. bolus into the antecubital vein over approximately 20 seconds. The tracer volume was between 6 ml and 12 ml. With the pump system configured to inject 0.33 ml per second, tracer injection time varied between 18 sec and 36 sec. The arterial catheter was used for collection of arterial blood samples and no participant received more than two arterial catheterizations during their participation in the study. An arterial catheter was maintained for up to 2 days depending on evaluation by medical staff. In case two arterial catheters were placed during the study conduct, then placement in alternate wrists was done. If the medical staff decided to remove an arterial catheter at any given time, a new one was placed for a next scan taking into account that no more than two arterial catheterizations per participant were allowed. Participants were asked to void their bladder before the start of each PET scan. Participants were positioned in the PET scanner so that scans were acquired in 3D list-mode in one bed position and the entire brain volume was included in the field of view. At screening and simultaneous with the PET acquisition, both a 3D volumetric T1-weighted BRAVO sequence (plane: sagittal; TE: 3.2 ms; TR: 8.5 ms; TI: 450 ms; Flip Angle: 12; Receiver Bandwidth: 31.2; NEX: 1; voxelsize: 1×1×1 mm) and 3D T2-weighted CUBE FLAIR sequence (plane: sagittal direction; TE: 137 ms; #echoes: 1; echo train length: 190; TR: 8500 ms; […]; Receiver Bandwidth: 31.25; NEX: 1; voxelsize: 1.2×1.3×1.4 mm) were acquired to detect possible structural abnormalities, and serve as an anatomical reference to define ROIs when co-registered with the PET scan. To correct for attenuation, a Zero-Echo Time (ZTE) scan was taken to allow the generation of a MR based attenuation map. At intermediate time points during acquisition, the ZTE sequence was repeated to have additional data for adjusting the MR based attenuation map in case of severe head motion. Next to anatomical MR sequences, eASL and rs-fMRI data were acquired simultaneously with the PET data, to determine regional cerebral blood flow and regional interactions in the brain in a resting or task-negative state. At least one eASL and one rs-fMRI sequence were performed during the PET acquisition but these sequences were repeated if time allowed. The total duration of the emission scan was 90 minutes. PET data will be rebinned in time frames according to the following scheme: • 6×15s-3×30s-3×60s-2×90s-2×3 min-9×5 min-3×10 min […]

SV2A [5] = target: SV2A (Homo sapiens, UniProt Q7L0J3); assay: SV2A binding in vitro, displacement of levetiracetam
Chain of SV2A (Homo sapiens, UniProt Q7L0J3) (Q7L0J3 whole entry, species assumed): as the sequence (Q7L0J3 whole entry) above

T1 sequence (Q02563 whole entry): as the sequence (Q7L0J3 whole entry) above, with D53E, S62A, T71A, E144D, A154T, G440S, S482A, I572V, M634L counted along it

## O=C1C[C@H](c2cc(F)c(F)c(F)c2)CN1Cn1ncnc1Cl [compound of example 1, (4R)-1-[(5-chloro-1H-1,2,4-triazol-1-yl)methyl]-4-(3,4,5-trifluorophenyl)pyrrolidin-2-one]
SV2A [1]
  receptor occupancy at 0.1 mg/kg: 20 to 50%
[2]
  time to reach steady state: 8 to 10 days
[3]
  anti-convulsant activity: without anti-convulsant activity
  effect on the anti-convulsant effect of levetiracetam: competitively inhibits
[4]; 1 mg single oral dose, 22 h
  receptor occupancy: below level of detection
[4]; 1 mg single oral dose, tmax (2 h)
  receptor occupancy: 25% and 21%
[4]; 2 mg single oral dose, 22 h
  receptor occupancy: 19% and 20%
[4]; 2 mg single oral dose, tmax (2 h)
  receptor occupancy: 42% and 39%
[4]; 10 mg single oral dose, 22 h
  receptor occupancy: 46% and 50%
[4]; 10 mg single oral dose, tmax (2 h)
  receptor occupancy: 68% and 69%
[4]; 20 mg single oral dose, 26 h
  receptor occupancy: 56% and 66%
[4]; 20 mg single oral dose, tmax (2 h)
  receptor occupancy: 76%
[4]; humans
  emax of PK/occupancy model (mean): 84.9
[4]; humans, plasma concentration, read-out: EC50, plasma concentration vs SV2A occupancy (PK/occupancy model, mean) (converted)
  EC50: 75.3 nM
SV2A [5]
  affinity of binding to SV2A (levetiracetam site): high affinity
SV2A [5]; in vitro
  displacement of the binding of levetiracetam to SV2A: competitively displaces
